The results in this text go back to US8962838B2, “Platinum complexes and their use” (Westfaelische Wilhelms-Universitaet Muenster, priority 2011, dated 2015).

For this series, the system named is HeLa S3 cells. The series is described as follows: Cytotoxicity experiments, percentage of viable cells by Casy-1 cell counter. It counts as cell-based. The settings on record: 24 h incubation. As to the method:
Cytotoxicity Experiments: HeLa S3 cells were seeded into 12-well tissue culture dishes in a density of approximately 80000 cells per well. The logarithmically growing cells were cultured for 24 h in Ham's F12 nutrient mixture containing 10% fetal bovine serum, 100 U penicillin per mL and […] streptomycin per mL and incubated at 37° C. with 5% CO2 in air and 100% humidity until the Pt-complexes were added. The cytotoxicity of the Pt-complexes was elucidated by quantifying the percentage of viable cells. Cell viability was measured after 24 h Pt-complex incubation and trypsinizing of cells, by an automatic cell counter (Casy-1, Roche Innovatis AG). These measurements are based on non-invasive (dye-free) electrical current exclusion with signal evaluation via pulse area analysis and allow the structural integrity of cells (membrane integrity and cell death).

`C[S+](C)[O-]` [DMSO]: the “DMSO concentration at which no toxic effect was detectable” value was “Below 1.8%”. Further, where the note is “2.5% DMSO”, the cytotoxicity entry is listed as “a high amount of viable Hela-S3 cells but still some dead cells were detected”. Besides, for the setting “DMSO concentration from 10% down to 5%”, the cytotoxicity result is on record as “extremely toxic”.
